# ChEMBL document CHEMBL1132398, “Identification of (-)-cis-6-acetyl-4S-(3-chloro-4-fluoro-benzoylamino)- 3,4-dihydro-2,2-dimethyl-2H-benzo[b]pyran-3S-ol as a potential antimigraine agent” (Bioorg Med Chem Lett, 1999)
# Legend:
# Rattus norvegicus [1] = test: In vivo percent increase in seizure threshold in rat MEST model at the dose of 3 mg/kg p.o. recorded 1 hr post dose; assay type: functional; conditions: route oral
# Mus musculus [2] = test: In vivo percent increase in seizure threshold in mouse MEST model 4 hours following 10 mg/kg p.o.; conditions: at 10 mg/kg
# Rattus norvegicus [3] = test: In vivo percent increase in seizure threshold in rat MEST model at the dose of 3 mg/kg p.o. recorded 0.5 hr post dose; assay type: functional; conditions: route oral
# Rattus norvegicus [4] = test: In vivo percent increase in seizure threshold in rat MEST model at the dose of 3 mg/kg p.o. recorded 2 hr post dose; assay type: functional; conditions: route oral
# Rattus norvegicus [5] = test: In vivo percent increase in seizure threshold in rat MEST model at the dose of 3 mg/kg p.o. recorded 0.25 hr post dose; assay type: functional; conditions: route oral
# Rattus norvegicus [6] = test: In vivo percent increase in seizure threshold in rat MEST model at the dose of 3 mg/kg p.o. recorded 6 hr post dose; assay type: functional; conditions: route oral
# Rattus norvegicus [7] = test: In vivo percent increase in seizure threshold in rat MEST model at the dose of 3 mg/kg p.o. recorded 4 hr post dose; assay type: functional; conditions: route oral
# Mus musculus [8] = test: In vivo percent increase in seizure threshold in mouse MEST model 1 hour following 10 mg/kg p.o.; conditions: at 10 mg/kg
# Rattus norvegicus [9] = species on record: Rattus norvegicus; test: Ability to displace [3H]- SB-204269 in the rat forebrain
# Rattus norvegicus [10] = test: In vivo percent increase in seizure threshold in rat MEST model at the dose of 10 mg/kg p.o. recorded 0.5 hr post dose; assay type: functional; conditions: route oral
# Rattus norvegicus [11] = test: In vivo percent increase in seizure threshold in rat MEST model at the dose of 10 mg/kg p.o. recorded 2 hr post dose; assay type: functional; conditions: route oral
# Rattus norvegicus [12] = test: In vivo percent increase in seizure threshold in rat MEST model at the dose of 10 mg/kg p.o. recorded 6 hr post dose; assay type: functional; conditions: route oral
# Rattus norvegicus [13] = test: In vivo percent increase in seizure threshold in rat MEST model at the dose of 10 mg/kg p.o. recorded 0.25 hr post dose; assay type: functional; conditions: route oral
# Rattus norvegicus [14] = test: In vivo percent increase in seizure threshold in rat MEST model at the dose of 10 mg/kg p.o. recorded 1 hr post dose; assay type: functional; conditions: route oral
structure (smiles),measurement,setting,value
CC(=O)c1ccc2c(c1)[C@H](NC(=O)c1ccc(F)cc1Cl)[C@@H](O)C(C)(C)O2,Increase,Rattus norvegicus [1],300%
same,Increase,Mus musculus [2],1080%
same,Increase,Rattus norvegicus [3],208%
same,Increase,Rattus norvegicus [4],660%
same,Increase,Rattus norvegicus [5],90%
same,Increase,Rattus norvegicus [6],1060%
same,Increase,Rattus norvegicus [7],900%
same,Increase,Mus musculus [8],162%
CC(=O)c1ccc2c(c1)[C@H](NC(=O)c1ccc(F)cc1)[C@@H](O)C(C)(C)O2 [CARABERSAT],Log Ki,Rattus norvegicus [9],-7.3
same,Increase,Rattus norvegicus [10],90%
same,Increase,Rattus norvegicus [11],420%
same,Increase,Rattus norvegicus [12],390%
same,Increase,Rattus norvegicus [13],48%
same,Increase,Rattus norvegicus [14],180%
CC(=O)c1ccc2c(c1)[C@H](NC(=O)c1cc(Cl)cc(Cl)c1Cl)[C@@H](O)C(C)(C)O2,Increase,Mus musculus [8],33%
CC(=O)c1ccc2c(c1)[C@H](NC(=O)c1ccsc1)[C@@H](O)C(C)(C)O2,Increase,Mus musculus [8],50%
CC(=O)c1ccc2c(c1)[C@H](NC(=O)c1cccc(Cl)c1)[C@H](O)C(C)(C)O2,Increase,Mus musculus [2],604%
same,Increase,Mus musculus [8],93%
CC(=O)c1ccc2c(c1)[C@H](NC(=O)c1cccc(Cl)c1Cl)[C@@H](O)C(C)(C)O2,Increase,Rattus norvegicus [10],286%
same,Increase,Rattus norvegicus [11],1124%
same,Increase,Rattus norvegicus [12],1076%
same,Increase,Rattus norvegicus [13],104%
same,Increase,Rattus norvegicus [14],880%
CC(=O)c1ccc2c(c1)[C@H](NC(=O)c1ccsc1Cl)[C@@H](O)C(C)(C)O2,Increase,Mus musculus [2],519%
same,Increase,Mus musculus [8],95%
CC(=O)c1ccc2c(c1)[C@H](NC(=O)c1ccsc1Cl)[C@H](O)C(C)(C)O2,Log Ki,Rattus norvegicus [9],-7.5
same,Increase,Mus musculus [2],383%
same,Increase,Mus musculus [8],47%
CC(=O)c1ccc2c(c1)[C@H](NC(=O)c1c(Cl)cccc1Cl)[C@@H](O)C(C)(C)O2,Increase,Mus musculus [8],10%
CC(=O)c1ccc2c(c1)[C@H](NC(=O)c1cnccn1)[C@@H](O)C(C)(C)O2,Increase,Mus musculus [8],15%
CC(=O)c1ccc2c(c1)[C@H](NC(=O)c1cccc(Cl)c1)[C@@H](O)C(C)(C)O2,Increase,Mus musculus [2],945%
same,Increase,Rattus norvegicus [10],273%
same,Increase,Rattus norvegicus [11],796%
same,Increase,Rattus norvegicus [12],983%
same,Increase,Rattus norvegicus [13],157%
same,Increase,Rattus norvegicus [14],507%
same,Increase,Mus musculus [8],90%
CC(=O)c1ccc2c(c1)[C@H](NC(=O)c1ccc(F)c(Cl)c1)[C@H](O)C(C)(C)O2 [TONABERSAT],Log Ki,Rattus norvegicus [9],-7.9
same,Increase,Rattus norvegicus [1],369%
same,Increase,Rattus norvegicus [3],202%
same,Increase,Rattus norvegicus [4],576%
same,Increase,Rattus norvegicus [5],76%
same,Increase,Rattus norvegicus [6],638%
same,Increase,Rattus norvegicus [7],533%
CC(=O)c1ccc2c(c1)[C@@H](NC(=O)c1cccc(Cl)c1)[C@@H](O)C(C)(C)O2,Log Ki,Rattus norvegicus [9],> -5.4
CC(=O)c1ccc2c(c1)[C@H](NC(=O)c1cccnc1)[C@@H](O)C(C)(C)O2,Increase,Mus musculus [8],30%
CC(=O)c1ccc2c(c1)[C@H](NC(=O)c1ccc(F)cc1Cl)[C@H](O)C(C)(C)O2,Log Ki,Rattus norvegicus [9],-7.2
same,Increase,Mus musculus [2],269%
same,Increase,Mus musculus [8],153%
